According to patent US8263636B2, “Dual alanyl aminopeptidase and dipeptidyl peptidase iv inhibitors for functionally influencing different cells and for treating immunological inflammatory, neuronal and other diseases” (IMTM GmbH, priority 2003, dated 2012):
Where two headings read alike, the source gives them in different places.

Experiments:
[1] = biological target: alanyl aminopeptidase (APN) (Homo sapiens, UniProt P15144); test: Inhibition of alanyl aminopeptidase enzymatic activity, fluorogenic substrate (Ala)2-rhodamine; format: biochemical
Method: (§1) The inhibition characteristics measured are referred to as IC-50 values or ID50 values (the lafter marked with “*”) for both enzymes. The enzymatic activity was determined by means of the fluorogenic substrates/products (Ala-Pro)2-rhodamine and (Ala)2-rhodamine.

[2] = biological target: dipeptidyl peptidase IV (DPIV) (Homo sapiens, UniProt P27487); test: Inhibition of dipeptidyl peptidase IV enzymatic activity, fluorogenic substrate (Ala-Pro)2-rhodamine; format: biochemical
Method: as §1

[3] = system: dextran sulfate-induced colitis; test: Dextran sulfate-induced colitis of mice; format: in vivo, female Balb/c mice; conditions: 10 μg single inhibitor i.p. on three successive days from day 5; day 7; insignificant; FIG. 2
[4] = system: ovalbumine-induced asthma bronchiale; test: Ovalbumine-induced asthma bronchiale of mice; format: in vivo, female Balb/c mice; conditions: i.p. 0.1 mg of each inhibitor, days 28-35; ovalbumine challenge day 35; FIG. 3A
Method: Female Balb/c mice were sensitized for the antigen ovalbumine capable of inducing asthma bronchiale by an intreperitoneal administration of 10 μg ovalbumine on the days 0, 14 and 21. On day 27/28, the animals received a boostering dose of ovalbumine by inhalation [vD3]. After an intreperitoneal administration of the peptidase inhibitors on the days 28-35, there was effected an intranasal ovalbumine challenge on day 35, as well as a check of the allergic premature reaction via the pulmonal function. There were measured: the average expiratory flux (EF50), the tidal volume, the respiration rate and the minute volume as well as the number of eosinophilic granulocytes in the bronchoalveolar lavage. 8 to 10 animals were used per experimental group. By way of example, in FIG. 3A, there is summarized the effect of the peptidase inhibitors on the reduction of the EF50 value.

[5] = second value of cell DPIV/APN, unmarked = IC-50, read-out: IC50 APN
[6] = first value of cell DPIV/APN, unmarked = IC-50, read-out: IC50 DPIV
[7] = second value of cell DPIV/APN, marked * = ID50 value, read-out: ID50 APN (marked with *)
[8] = Table 8, first value of cell, unmarked = IC-50, read-out: IC50 DPIV

Chain of alanyl aminopeptidase (APN) (P15144 whole entry, species assumed): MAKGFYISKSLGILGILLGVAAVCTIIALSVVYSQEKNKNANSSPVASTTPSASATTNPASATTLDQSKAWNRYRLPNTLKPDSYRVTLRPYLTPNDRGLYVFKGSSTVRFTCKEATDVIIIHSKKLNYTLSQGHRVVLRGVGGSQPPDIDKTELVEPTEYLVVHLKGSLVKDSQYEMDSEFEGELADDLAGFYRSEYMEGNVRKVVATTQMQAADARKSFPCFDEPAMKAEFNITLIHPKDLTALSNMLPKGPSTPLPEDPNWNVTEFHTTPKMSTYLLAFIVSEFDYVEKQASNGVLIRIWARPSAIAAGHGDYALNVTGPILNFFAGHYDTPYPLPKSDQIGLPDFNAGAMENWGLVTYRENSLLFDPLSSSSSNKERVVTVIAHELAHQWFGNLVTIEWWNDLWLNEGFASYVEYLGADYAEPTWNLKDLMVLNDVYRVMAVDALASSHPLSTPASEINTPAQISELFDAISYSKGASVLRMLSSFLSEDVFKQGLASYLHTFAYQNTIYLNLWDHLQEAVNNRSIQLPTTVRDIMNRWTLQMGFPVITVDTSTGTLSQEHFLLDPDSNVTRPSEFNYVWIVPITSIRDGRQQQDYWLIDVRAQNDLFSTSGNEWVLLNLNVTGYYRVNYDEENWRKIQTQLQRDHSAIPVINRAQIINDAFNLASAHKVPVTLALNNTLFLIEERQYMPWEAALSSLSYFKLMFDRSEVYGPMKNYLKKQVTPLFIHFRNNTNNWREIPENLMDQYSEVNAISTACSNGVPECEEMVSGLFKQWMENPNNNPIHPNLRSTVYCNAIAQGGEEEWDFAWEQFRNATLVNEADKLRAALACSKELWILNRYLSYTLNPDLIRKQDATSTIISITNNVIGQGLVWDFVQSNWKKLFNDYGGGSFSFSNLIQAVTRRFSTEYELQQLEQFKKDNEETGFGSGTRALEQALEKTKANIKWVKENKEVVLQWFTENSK
Chain of dipeptidyl peptidase IV (DPIV) (P27487 whole entry, species assumed): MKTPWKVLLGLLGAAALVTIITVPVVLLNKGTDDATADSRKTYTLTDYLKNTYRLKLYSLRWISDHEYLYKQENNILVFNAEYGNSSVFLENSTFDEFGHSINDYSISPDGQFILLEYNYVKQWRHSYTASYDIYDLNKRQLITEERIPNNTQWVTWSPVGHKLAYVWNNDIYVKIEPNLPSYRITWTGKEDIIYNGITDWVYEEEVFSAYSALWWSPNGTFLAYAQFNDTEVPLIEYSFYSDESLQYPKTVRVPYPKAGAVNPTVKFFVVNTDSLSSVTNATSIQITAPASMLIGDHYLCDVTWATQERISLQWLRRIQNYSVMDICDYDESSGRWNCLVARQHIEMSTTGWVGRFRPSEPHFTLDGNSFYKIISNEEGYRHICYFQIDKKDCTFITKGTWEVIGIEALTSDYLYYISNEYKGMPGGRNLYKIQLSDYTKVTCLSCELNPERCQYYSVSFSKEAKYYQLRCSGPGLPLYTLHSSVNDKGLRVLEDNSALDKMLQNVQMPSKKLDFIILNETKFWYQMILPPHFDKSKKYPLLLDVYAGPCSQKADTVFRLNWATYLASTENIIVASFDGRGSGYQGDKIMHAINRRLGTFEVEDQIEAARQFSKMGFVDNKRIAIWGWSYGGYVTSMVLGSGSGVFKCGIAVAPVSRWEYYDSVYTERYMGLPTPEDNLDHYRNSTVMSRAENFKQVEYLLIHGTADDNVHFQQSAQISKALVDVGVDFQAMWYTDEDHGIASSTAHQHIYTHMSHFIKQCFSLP

IC50 [1, 5] | IC50 [2, 6] | SMILES | further results
35 µM | 57 µM | Cc1[nH]c2ccccc2c1C(c1cccs1)N1CCCC1 (centres unmarked) [Compound C4.019] | –
– | – | COc1cc(C)[n+](OC(=O)N(C)C)c(C)c1 [Compound C8.021] | IC50 [2]: 119 µM
25 µM | 49 µM | CCOC(=O)N1CCN(C(c2cccs2)c2c(C)[nH]c3ccccc23)CC1 (centres unmarked) [Compound C4.015] | –
– | – | COc1ccc(C(=O)N/N=C\c2cc(Br)c(O)c(O)c2Br)cc1 [Compound C2.013] | IC50 ([2]; first value of cell DPIV/APN, marked * = ID50 value, read-out: ID50 DPIV (marked with *)): 94 µM
100 µM | – | COC(=O)C1=c2s/c(=C\c3ccco3)c(=O)n2C(N)=C(S(=O)(=O)c2ccccc2)C1c1ccco1 (centres unmarked) [Compound C16.010] | –
– | 38.6 µM | O=C(N/N=C/c1cc(Br)cc(Br)c1OC(=O)c1ccccc1)/C(=C/c1ccc2c(c1)OCO2)NC(=O)c1ccccc1 [Compound C4.006] | –
78 µM | 74 µM | Cc1[nH]c2ccccc2c1C(c1ccccn1)N1CCCCC1 (centres unmarked) [Compound C4.013] | –
– | 170 µM | Cc1[nH]c2ccccc2c1C(c1ccccn1)N1CCCC1 (centres unmarked) [Compound C4.011] | –
42 µM | 54 µM | Cc1[nH]c2ccccc2c1C(c1ccccn1)N1CCC(C(N)=O)CC1 (centres unmarked) [Compound C4.010] | –
– | – | CCCCC[C@H](CC(=O)NO)C(=O)N[C@H](C(=O)N1CCC[C@H]1CO)C(C)C [actinonine] | reduction of the heaviness of the disease (score) [3]: −16.5%; effect on the reduction of the average expiratory flux (EF50) [4]: showed a therapeutic effect
– | 40.8 µM | COc1ccc(OCC(=O)N/N=C/c2cc(Br)c(O)c(O)c2Br)c(Br)c1 [Compound C2.005] | –
30 µM | 49 µM | COc1ccc(C(c2c(C)[nH]c3ccccc23)N2CCCC2)cc1 (centres unmarked) [Compound C4.016] | –
11.8 µM | – | Cc1[nH]c2ccccc2c1C(c1cc(Cl)ccc1O)N1CCOCC1 (centres unmarked) [Compound C4.002] | –
– | 25.4 µM | CCOC(=O)C(NC(=O)c1ccc(OC)cc1)(N1CCCC1=O)C(F)(F)F (centres unmarked) [Compound C7.002] | –
26.7 µM | 99.4 µM | COc1ccccc1N1C(=O)c2ccc(Oc3ccc(NC(=O)CCS(=O)(=O)c4ccc(C)cc4)cc3)cc2C1=O [Compound C10.015] | –
– | 139 µM | CCOC(=O)C1=c2s/c(=C\c3cccs3)c(=O)n2C(N)=C(S(=O)(=O)c2ccccc2)C1c1cccs1 (centres unmarked) [Compound C16.008] | –
– | – | CCOC(=O)C(NC(=O)c1ccc(OC)cc1)(N1CCOCC1)C(F)(F)F (centres unmarked) [Compound C8.017] | IC50 ([1]; Table 8, second value of cell, unmarked = IC-50, read-out: IC50 APN): 90.2 µM
– | 152 µM | O=C(N/C(=C\c1ccco1)C(=O)N1CCCC(CO)C1)c1ccccc1 (centres unmarked) [Compound C9.006] | –
75 µM | 79 µM | CC(C)OC(=O)C1=C(N)N2C(=O)CSC2=C(C(=O)OC(C)C)C1 [Compound C16.007] | –
– | – | CCOC(=O)C(NC(=O)c1ccccc1)(N1CCOCC1)C(F)(F)F (centres unmarked) [Compound C7.004] | IC50 [1, 7]: 186 µM
– | – | N[C@@H](CCCCNC(=O)OCc1ccc([N+](=O)[O-])cc1)C(=O)N1CCCC1 [Lys[Z(NO2)] pyrrolidide] | reduction of the heaviness of the disease (score) [3]: −12.3%; effect on the reduction of the average expiratory flux (EF50) [4]: showed a therapeutic effect
– | – | C=CCN1C(=O)C(C#N)=C(C)/C(=C\c2ccc(-c3cc(C)c(C)cc3[N+](=O)[O-])o2)C1=O [Compound C8.012] | IC50 [2, 8]: 65.4 µM

IC50 [1, 5] | IC50 [2, 6] | SMILES | further results
76 µM | 96 µM | Cc1[nH]c2ccccc2c1C(c1ccccn1)N1CCN(c2ccc(F)cc2)CC1 (centres unmarked) [Compound C4.009] | –
– | – | O=C(N/C(=C\c1ccco1)C(=O)N1CCCC(CO)C1)c1ccccc1 (centres unmarked) [Compound C8.020] | IC50 ([2]; Table 8, first value of cell, marked * = ID50 value, read-out: ID50 DPIV (marked with *)): 152 µM
21.7 µM | 18.9 µM | CCOC(=O)C(NC(=O)c1cccc(Cl)c1)(Nc1ccccc1OC)C(F)(F)F (centres unmarked) [Compound C7.001] | –
– | – | COc1ccc(C(=O)N/N=C/c2cc(O)c(O)c(Br)c2Br)cc1 [Compound C2.012] | IC50 [1, 7]: 33.6 µM
– | 140 µM | COC(=O)C1=c2s/c(=C\c3cccc(OC)c3)c(=O)n2C(N)=C(S(=O)(=O)c2ccccc2)C1c1cccc(OC)c1 (centres unmarked) [Compound C16.009] | –
– | 10.8 µM | COC(=O)C1=C(N)N2C(=O)CSC2=C(C(=O)OC(C)C)C1 [Compound C10.003] | –
– | – | COC(=O)C1=C(N)N2C(=O)CSC2=C(C(=O)OC(C)C)C1 [Compound C8.003] | IC50 [2, 8]: 10.8 µM
6.9 µM | 10.8 µM | COC(=O)C1=C(N)N2C(=O)CSC2=C(C(=O)OC(C)C)C1 [Compound C16.001] | –
– | – | CN(C)CCNc1nc2c(c(=O)n(C)c(=O)n2C)n1Cc1ccccc1Cl [Compound C8.002] | IC50 APN ([1]; Table 8, second value of cell, unmarked = IC-50): 7.5/Inactive
32 µM | 32 µM | CCOC(=O)C1CCN(C(c2ccccn2)c2c(C)[nH]c3ccccc23)CC1 (centres unmarked) [Compound C4.007] | –
31 µM | 67 µM | Cc1[nH]c2ccccc2c1C(c1cccs1)N1CCCCC1 (centres unmarked) [Compound C4.017] | –
– | – | Cc1ccc(C)n1-c1cccc(C(=O)N/N=C/c2cc(Br)c(O)c(Br)c2)c1 [Compound C2.007] | IC50 ([2]; read-out: IC50 DPIV): 41.1 µM
32 µM | 61 µM | Cc1[nH]c2ccccc2c1C(c1cccs1)N1CCOCC1 (centres unmarked) [Compound C4.018] | –
– | – | Cc1ccc(/C=N/NC(=O)c2cccc(I)c2)o1 [Compound C2.010] | IC50 ([2]; read-out: IC50 DPIV): 57.4 µM
90.2 µM | – | CCOC(=O)C(NC(=O)c1ccc(OC)cc1)(N1CCOCC1)C(F)(F)F (centres unmarked) [Compound C7.003] | –
48 µM | 61 µM | Cc1[nH]c2ccccc2c1C(c1cccs1)N1CCC(C(N)=O)CC1 (centres unmarked) [Compound C4.014] | –
28 µM | 45 µM | Cc1[nH]c2ccccc2c1C(c1ccccn1)N1CCN(c2ccccn2)CC1 (centres unmarked) [Compound C4.008] | –
– | 115 µM | COC(=O)C1=c2s/c(=C\c3ccc(C)cc3)c(=O)n2C(N)=C(S(=O)(=O)c2ccccc2)C1c1ccc(C)cc1 (centres unmarked) [Compound C16.011] | –
14.8 µM | 20.6 µM | COc1ccc(N2C(=O)c3ccc(Oc4ccc(N5C(=O)c6ccc(C(=O)O)cc6C5=O)cc4)cc3C2=O)cc1 [Compound C12.001] | –
36 µM | 59 µM | Cc1[nH]c2ccccc2c1C(c1ccccn1)N1CCOCC1 (centres unmarked) [Compound C4.012] | –
– | – | COc1cc(Br)c(OCC(=O)N/N=C/c2cc(Br)c(O)c(O)c2Br)c(Br)c1 [Compound C2.003] | IC50 [1, 7]: 5.4 µM
